Source: patent US7176199B2, “Aryl-substituted alicyclic compound and medical composition comprising the same” (Dainippon Pharmaceutical Co., Ltd., priority 2001, dated 2007)

Legend:
αIIbβ3 integrin = molecular target: T1, αIIbβ3 integrin (Homo sapiens, UniProt P05106+P08514); assay: Assay for the inhibition of αIIbβ3 integrin binding (fibrinogen as ligand, integrin captured from platelet lysate); details: inhibition of specific binding of biotinylated fibrinogen to αIIbβ3 integrin from human platelet lysate
T1 construct: from tissue; host or cells: human platelets (Triton X-100 lysate)
T1 sequence (P08514 32-887 limits assumed): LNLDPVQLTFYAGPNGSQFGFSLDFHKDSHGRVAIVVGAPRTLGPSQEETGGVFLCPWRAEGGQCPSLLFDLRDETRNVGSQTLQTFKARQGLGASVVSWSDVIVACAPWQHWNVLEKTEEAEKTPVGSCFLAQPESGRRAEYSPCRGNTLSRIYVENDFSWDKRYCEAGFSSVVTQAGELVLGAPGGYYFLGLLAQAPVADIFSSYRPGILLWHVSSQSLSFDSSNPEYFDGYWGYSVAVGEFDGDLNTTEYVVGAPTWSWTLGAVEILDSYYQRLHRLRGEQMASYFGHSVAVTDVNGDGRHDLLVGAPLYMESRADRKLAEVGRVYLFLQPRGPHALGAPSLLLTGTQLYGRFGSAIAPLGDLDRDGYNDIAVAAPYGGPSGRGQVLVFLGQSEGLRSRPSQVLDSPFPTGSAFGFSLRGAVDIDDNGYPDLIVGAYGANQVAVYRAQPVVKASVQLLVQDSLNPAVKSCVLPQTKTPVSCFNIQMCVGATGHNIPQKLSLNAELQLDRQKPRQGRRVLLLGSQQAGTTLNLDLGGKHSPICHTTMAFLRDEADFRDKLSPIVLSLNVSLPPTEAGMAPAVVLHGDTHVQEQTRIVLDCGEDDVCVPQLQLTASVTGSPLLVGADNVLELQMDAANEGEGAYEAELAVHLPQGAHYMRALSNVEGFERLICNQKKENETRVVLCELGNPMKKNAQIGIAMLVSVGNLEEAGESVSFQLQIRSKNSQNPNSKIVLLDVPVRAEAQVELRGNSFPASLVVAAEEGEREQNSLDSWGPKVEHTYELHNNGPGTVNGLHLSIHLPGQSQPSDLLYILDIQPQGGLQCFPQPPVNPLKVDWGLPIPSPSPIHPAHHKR
T1 sequence (P08514 891-1039 partner limits assumed): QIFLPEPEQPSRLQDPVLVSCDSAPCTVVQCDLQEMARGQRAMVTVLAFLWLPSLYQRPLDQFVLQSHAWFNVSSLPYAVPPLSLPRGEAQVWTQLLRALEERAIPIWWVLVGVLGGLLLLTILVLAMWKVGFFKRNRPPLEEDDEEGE
T1 sequence (P05106 27-788): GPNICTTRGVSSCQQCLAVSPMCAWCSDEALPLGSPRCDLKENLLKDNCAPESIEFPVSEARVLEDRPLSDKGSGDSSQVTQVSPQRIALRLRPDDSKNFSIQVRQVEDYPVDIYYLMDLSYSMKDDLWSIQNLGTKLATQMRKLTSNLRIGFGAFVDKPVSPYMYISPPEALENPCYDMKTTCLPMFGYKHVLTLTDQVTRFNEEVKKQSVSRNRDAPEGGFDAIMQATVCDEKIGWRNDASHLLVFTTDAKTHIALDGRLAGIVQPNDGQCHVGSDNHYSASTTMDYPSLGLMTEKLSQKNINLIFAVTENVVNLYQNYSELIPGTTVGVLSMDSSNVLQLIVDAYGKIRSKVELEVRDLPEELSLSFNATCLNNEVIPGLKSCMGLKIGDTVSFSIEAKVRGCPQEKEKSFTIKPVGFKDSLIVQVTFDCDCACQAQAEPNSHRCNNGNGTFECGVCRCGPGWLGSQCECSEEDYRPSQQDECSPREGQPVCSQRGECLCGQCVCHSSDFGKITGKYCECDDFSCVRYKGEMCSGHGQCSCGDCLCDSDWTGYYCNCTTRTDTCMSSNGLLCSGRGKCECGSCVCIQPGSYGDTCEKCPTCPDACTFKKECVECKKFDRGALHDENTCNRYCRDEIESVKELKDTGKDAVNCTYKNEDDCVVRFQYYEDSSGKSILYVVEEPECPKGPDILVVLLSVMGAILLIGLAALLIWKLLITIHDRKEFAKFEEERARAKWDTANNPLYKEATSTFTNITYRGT
Description: Experiment 2: Assay for the Inhibition of αIIbβ3 Integrin Binding
This experiment was carried out based on the method described in Thromb. Haemostasis, 75, 339 (1996), Blood, 93, 2559 (1999), using fibrinogen as a ligand. According to the method described in the above literatures, assay for the inhibition of αIIbβ3 integrin binding can be achieved by capturing αIIbβ3 integrin from platelet lysate with the use of an activated antibody against αIIbβ3 integrin.
Human platelets were isolated in a conventional manner. At 25° C., the isolated platelets were adjusted to a concentration of 1.25×10^9/ml with TBS+[50 mM Tris-HCl (pH 7.4), 150 mM NaCl, 2 mM CaCl2], and then ⅛ volume of TBS^+ containing 2 mM leupepsin and 10 mM PMSF was added and stirred gently. Nest, 1/9 volume of TBS+ containing 10% Triton X-100 was added and stirred gently. After standing on ice for 30 minutes, a platelet lysate was prepared from the mixture by discarding the insoluble fraction with centrifugation (10,000 g, 15 minutes).
Anti-mouse IgG goat antibody (Jackson Immunoresearch Laboratories, Inc., USA) was adjusted to a concentration of 5 μg/ml with sodium carbonate buffer (pH 9.6) and added to plates at 50 μl/well. The plate was left at 4° C. overnight for immobilization of the antibody. All subsequent steps were done at 25° C., and the procedure for each well was described hereafter.
The well was washed once with TBS^+, and then 200 μl of TBS^+ containing 5% BSA was added to the well and left for one hour for blocking. The well was washed with a reaction solution (TBS^+ containing 0.1% BSA and 0.05% Triton X-100) 4 times, and then 50 μl of anti-human αIIbβ3 integrin activated monoclonal antibody (TAKARA SHUZO CO., LTD, Japan, PT25-2 strain) adjusted to 5 μg/ml with the reaction solution was added to the well. After one hour reaction, the well was washed 4 times with the reaction solution, and 50 μl of the platelet lysate diluted 1:2 with the reaction solution was added to the well. Following 2 hours reaction, the well was washed 4 times with the reaction solution, and 50 μl of the reaction solution was added to the well. Subsequently, 25 μl of a test compound solution adjusted to each concentration with the reaction solution was added, and then mixed with 25 μl of biotinylated fibrinogen (Calbiochem, Germany) adjusted to 2 μg/ml with the reaction solution. The mixture was reacted for one hour. After washing 4 times with the reaction solution, 100 μl of alkaline phosphatase-labeled streptoavidin (Gibco BRL, USA) diluted 1:500 with the reaction solution was added to the well. Following 30 minutes reaction, the well was washed 4 times with the wash solution. Next, 50 μl of the NaDPH solution (Invitrogen, former company name: Gibco BRL, USA) was added and reacted for 20 minutes, and then 50 μl of an amplification solution containing diaphorase and alcohol dehydrogenase (Invitrogen, former company name: Gibco BRL, USA) was added. Color was developed for 20 minutes and the reaction was stopped by adding 50 μl of 0.5 M sulfuric acid.
(§1) The absorbance at 495 nm was measured with a plate reader to obtain a total binding. To obtain a nonspecific binding, EDTA adjusted to 20 mM with the reaction solution was added instead of the test compound solution. A specific binding was calculated by subtracting the nonspecific binding from the total binding.

αvβ3 integrin = αvβ3 integrin (Homo sapiens, UniProt P05106+P06756); assay: Assay for the inhibition of αvβ3 integrin binding (vitronectin as ligand); set-up: purchased Chemicon International, Inc., USA; details: inhibition of specific binding of biotinylated human vitronectin to immobilized αvβ3 integrin
αvβ3 integrin, sequence (P06756 31-889 limits assumed): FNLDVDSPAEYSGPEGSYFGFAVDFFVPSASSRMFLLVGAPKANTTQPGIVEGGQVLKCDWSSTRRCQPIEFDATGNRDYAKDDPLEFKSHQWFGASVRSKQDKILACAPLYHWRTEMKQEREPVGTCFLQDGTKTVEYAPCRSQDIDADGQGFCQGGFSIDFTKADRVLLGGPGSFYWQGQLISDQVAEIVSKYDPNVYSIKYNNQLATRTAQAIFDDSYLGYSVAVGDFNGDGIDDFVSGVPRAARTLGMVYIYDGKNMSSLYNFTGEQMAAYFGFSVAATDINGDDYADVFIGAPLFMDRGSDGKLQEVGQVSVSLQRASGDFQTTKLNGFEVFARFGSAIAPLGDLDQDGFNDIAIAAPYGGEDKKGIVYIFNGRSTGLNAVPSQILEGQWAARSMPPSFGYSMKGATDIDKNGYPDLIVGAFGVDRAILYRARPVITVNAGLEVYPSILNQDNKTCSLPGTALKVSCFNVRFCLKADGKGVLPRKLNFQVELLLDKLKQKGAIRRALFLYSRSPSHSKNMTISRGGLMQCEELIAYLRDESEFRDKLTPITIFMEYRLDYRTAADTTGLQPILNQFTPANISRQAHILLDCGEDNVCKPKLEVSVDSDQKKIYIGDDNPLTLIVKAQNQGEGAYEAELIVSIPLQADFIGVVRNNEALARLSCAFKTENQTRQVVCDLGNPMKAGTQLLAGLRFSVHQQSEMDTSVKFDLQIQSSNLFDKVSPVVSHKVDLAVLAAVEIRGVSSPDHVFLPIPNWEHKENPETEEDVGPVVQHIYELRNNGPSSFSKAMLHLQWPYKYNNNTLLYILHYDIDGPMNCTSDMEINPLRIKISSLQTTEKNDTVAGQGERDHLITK
αvβ3 integrin, sequence (P06756 891-1048 partner limits assumed): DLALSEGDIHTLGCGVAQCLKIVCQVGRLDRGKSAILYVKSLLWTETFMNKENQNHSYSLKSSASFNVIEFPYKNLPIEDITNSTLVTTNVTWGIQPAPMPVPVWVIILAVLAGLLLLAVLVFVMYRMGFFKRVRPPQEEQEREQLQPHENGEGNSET
αvβ3 integrin, sequence (P05106 27-788): as the sequence (P05106 27-788) above
Description: Experiment 1: Assay for the Inhibition of αvβ3 integrin binding
This experiment was carried out based on the method described in […].
Purified human αvβ3 integrin (Chemicon International, Inc., USA) was adjusted to a concentration of 1 μg/ml with TBS^++ [20 mM Tris-HCl (pH 7.4), 150 mM NaCl, 1 mM CaCl2, 1 mM MgCl2], and the diluted solution was added to plates (Labsystems, Finland) at 50 μl/well. The plate was left at 4° C. overnight for immobilization of the αvβ3 integrin. All subsequent steps were done at 25° C., and the procedure for each well was described hereafter.
The solution was discarded, and then 200 μl of TBS^++ containing 1% BSA (Wako Pure Chemical Industries, Ltd., Japan) was added to the well and left for one hour for blocking. The well was washed with a wash solution (TBS^++ containing 0.01% Tween 20) 4 times, and 50 μl of a reaction solution (TBS^++ containing 0.1% BSA and 0.01% Tween 20) was added to the well. Subsequently, 25 μl of a test compound solution adjusted to each concentration with the reaction solution was added, and then mixed with 25 μl of biotinylated (Amersham Pharmacia Biotech, UK) human vitronectin (Gibco BRL, USA) adjusted to 0.4 μg/ml with the reaction solution. The mixture was reacted for 2 hours. After washing 4 times with the wash solution, 100 μl of peroxidase-labeled streptoavidin (Amersham Pharmacia Biotech, UK) diluted 1:500 with the reaction solution was added to the well. Following 30 minutes reaction, the well was washed 4 times with the wash solution, and 100 μl of a TMB substrate solution (Bio-Rad Laboratories, USA) was added to the well. Color was developed for 20 minutes and the reaction was stopped by adding 100 μl of 0.5 M sulfuric acid.
as §1, with “450” for “495”, “reader (Molecular Devices, USA)” for “reader”

SMILES	IC50 (αIIbβ3 integrin) [nM]	IC50 (αvβ3 integrin) [nM]
CCCCCCCCCCOC(=O)N[C@@H](CCC(=O)N1CCN(c2cccc(NC3=NCC(C)(C)CN3)c2)CC1)C(=O)O [Ex. 132]	> 1000	1.7
CCCCCCOC(=O)N[C@@H](CCC(=O)N1CCN(c2cccc(NC3=NCC(O)CN3)c2)CC1)C(=O)O (some centres unmarked) [Ex. 131]	57	0.3
CCCCCCOC(=O)N[C@@H](CCC(=O)N1CCN(c2cccc(NC3=NCCCN3)c2)CC1)C(=O)O [Ex. 137, (2S)-2-hexyloxycarbonylamino-5-[4-[3-(1,4,5,6-tetrahydropyrimidin-2-yl)aminophenyl]piperazin-1-yl]-5-oxopentanoic acid]	880	0.28
O=C(N[C@@H](CNC(=O)C1CCN(c2cc(F)cc(NC3=NCCCN3)c2)CC1)C(=O)O)OCc1ccccc1 [Ex. 156, (2S)-2-benzyloxycarbonylamino-3-[[1-[5-fluoro-3-(1,4,5,6-tetrahydropyrimidin-2-yl)aminophenyl]piperidin-4-yl]carbonylamino]-propanoic acid]	43	0.055
CC(C)COC(=O)N[C@@H](CNC(=O)C1CCN(c2cccc(NC3=NCC(C)(C)CN3)c2)CC1)C(=O)O [Ex. 18, (2S)-2-isobutoxycarbonylamino-3-[[1-[3-(5,5-dimethyl-1,4,5,6-tetrahydropyrimidin-2-yl)aminophenyl]piperidin-4-yl]carbonylamino]-propanoic acid]	310	0.13
CCCCCCCCCCOC(=O)N[C@@H](CNC(=O)C1CCN(c2cccc(NC3=NCCCN3)c2)CC1)C(=O)O [Ex. 90, (2S)-2-decyloxycarbonylamino-3-[[1-[3-(1,4,5,6-tetrahydropyrimidin-2-yl)aminophenyl]piperidin-4-yl]carbonylamino]propanoic acid]	260	0.23
CN(C[C@H](NC(=O)OCc1ccccc1)C(=O)O)C(=O)C1CCN(c2cccc(NC3=NCCCN3)c2)CC1 [Ex. 162, (2S)-2-benzyloxycarbonylamino-3-[[1-[3-(1,4,5,6-tetrahydropyrimidin-2-yl)aminophenyl]piperidin-4-yl]-N-methylcarbonylamino]propanoic acid]	> 1000	0.21
O=C(N[C@@H](CNC(=O)C1CCN(c2cccc(NC3=NCC(F)(F)CN3)c2)CC1)C(=O)O)OCc1ccccc1 [Ex. 12, (2S)-2-benzyloxycarbonylamino-3-[[1-[3-(5,5-difluoro-1,4,5,6-tetrahydropyrimidin-2-yl)aminophenyl]piperidin-4-yl]carbonylamino]-propanoic acid]	95	0.057
O=C(N[C@@H](CCC(=O)N1CCN(c2cccc(NC3=NCC(O)CN3)c2)CC1)C(=O)O)OCc1ccccc1 (some centres unmarked) [Ex. 125]	340	0.15
Cc1cc(C)c(S(=O)(=O)N[C@@H](CCC(=O)N2CCN(c3cccc(NC4=NCCCN4)c3)CC2)C(=O)O)c(C)c1 [Ex. 140]	30	0.22
Cc1ccc(N2CCC(C(=O)NC[C@H](NC(=O)OCc3ccccc3)C(=O)O)CC2)cc1NC1=NCCCN1 [Ex. 153, (2S)-2-benzyloxycarbonylamino-3-[[1-[4-methyl-3-(1,4,5,6-tetrahydropyrimidin-2-yl)aminophenyl]piperidin-4-yl]-carbonylamino]propanoic acid]	94	0.14
CC(C)OC(=O)N[C@@H](CNC(=O)C1CCN(c2cccc(NC3=NCCCN3)c2)CC1)C(=O)O [Ex. 44, (2S)-2-isopropoxycarbonylamino-3-[[1-[3-(1,4,5,6-tetrahydropyrimidin-2-yl)aminophenyl]piperidin-4-yl]carbonylamino]-propanoic acid]	800	0.11
CCCCCCCCOC(=O)N[C@@H](CNC(=O)C1CCN(c2cccc(NC3=NCCCN3)c2)CC1)C(=O)O [Ex. 89, (2S)-2-octyloxycarbonylamino-3-[[1-[3-(1,4,5,6-tetrahydropyrimidin-2-yl)aminophenyl]piperidin-4-yl]carbonylamino]propanoic acid]	96	0.1
CCCCCCCCCCOC(=O)N[C@@H](CCC(=O)N1CCN(c2cccc(NC3=NCC(O)CN3)c2)CC1)C(=O)O (some centres unmarked) [Ex. 134]	> 1000	0.64
CCCCCCOC(=O)N[C@@H](CNC(=O)C1CCN(c2cccc(NC3=NCCCN3)c2)CC1)C(=O)O [Ex. 88, (2S)-2-hexyloxycarbonylamino-3-[[1-[3-(1,4,5,6-tetrahydropyrimidin-2-yl)aminophenyl]piperidin-4-yl]carbonylamino]propanoic acid]	26	0.051
CCCCCCOC(=O)N[C@@H](CCC(=O)N1CCN(c2cccc(NC3=NCC(F)CN3)c2)CC1)C(=O)O (stereo partly drawn) [Ex. 130, (2S)-2-hexyloxycarbonylamino-5-[4-[3-(5-fluoro-1,4,5,6-tetrahydropyrimidin-2-yl)aminophenyl]piperazin-1-yl]-5-oxopentanoic acid]	> 1000	0.058
CCCCCCCCCCOC(=O)N[C@@H](CCC(=O)N1CCN(c2cccc(NC3=NCC(C)CN3)c2)CC1)C(=O)O (some centres unmarked) [Ex. 135]	> 1000	0.74
CCCCCCCCCCOC(=O)N[C@@H](CCC(=O)N1CCN(c2cccc(NC3=NCC(F)CN3)c2)CC1)C(=O)O (some centres unmarked) [Ex. 133]	> 1000	0.26
O=C(N[C@@H](CCC(=O)N1CCN(c2cc(F)cc(NC3=NCCCN3)c2)CC1)C(=O)O)OCc1ccccc1 [Ex. 158, (2S)-2-benzyloxycarbonylamino-5-[4-[5-fluoro-3-(1,4,5,6-tetrahydropyrimidin-2-yl)aminophenyl]piperazin-1-yl]-5-oxopentanoic acid]	750	0.14
CCOC(=O)N[C@@H](CNC(=O)C1CCN(c2cccc(NC3=NCCCN3)c2)CC1)C(=O)O [Ex. 86, (2S)-2-ethoxycarbonylamino-3-[[1-[3-(1,4,5,6-tetrahydropyrimidin-2-yl)aminophenyl]piperidin-4-yl]carbonylamino]propanoic acid]	380	0.094
O=C(N[C@@H](CNC(=O)C1CCC(c2cccc(NC3=NCCCN3)c2)CC1)C(=O)O)OCc1ccccc1 (single isomer, unassigned) [Ex. 151A]	37	0.074
O=C(N[C@@H](CNC(=O)C1CCC(c2cccc(NC3=NCCCN3)c2)CC1)C(=O)O)OCc1ccccc1 (single isomer, unassigned) [Ex. 151B]	510	1.9
